Measured values from ChEMBL document CHEMBL1201862, “PubChem BioAssay data set” (2004).
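Interpolation was linear, between the two tested concentrations surrounding the appropriate level; five concentrations were tested over 48 hours in 96-well plates. Here, GI50 denotes the concentration required for 50% inhibition of growth.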 Activity calls are given as the source filed them. No stated cut-off is given here; in the data, active = GI50 up to about 1.1 µM and inactive = higher.

Tests used:
Experiment in all cases: NCI-60 cell line screen, 48 h
SK-MEL-2 = test system: SK-MEL-2
SNB-19 = test system: SNB-19
Hs-578T = test system: Hs-578T
SN12C = test system: SN12C
OVCAR-5 = test system: OVCAR-5
TK-10 = test system: TK-10
LOX IMVI = test system: LOX IMVI
A549 = test system: A549
MCF7 = test system: MCF7
HCC 2998 = test system: HCC 2998
SW-620 = test system: SW-620
HCT-116 = test system: HCT-116
SK-MEL-28 = test system: SK-MEL-28
HT-29 = test system: HT-29
786-0 = test system: 786-0
NCI/ADR-RES = test system: NCI/ADR-RES
UACC-62 = test system: UACC-62
MOLT-4 = test system: MOLT-4
SK-MEL-5 = test system: SK-MEL-5
ACHN = test system: ACHN
KM12 = test system: KM12
CAKI-1 = test system: CAKI-1
NCI-H23 = test system: NCI-H23
HCT-15 = test system: HCT-15
RPMI-8226 = test system: RPMI-8226
BT-549 = test system: BT-549
NCI-H460 = test system: NCI-H460
NCI-H522 = test system: NCI-H522
SNB-75 = test system: SNB-75
IGROV-1 = test system: IGROV-1
A498 = test system: A498
UACC-257 = test system: UACC-257
OVCAR-3 = test system: OVCAR-3
OVCAR-4 = test system: OVCAR-4
HOP-62 = test system: HOP-62
M14 = test system: M14
SF-539 = test system: SF-539
Malme-3M = test system: Malme-3M
OVCAR-8 = test system: OVCAR-8
SF-268 = test system: SF-268
MDA-MB-231 = test system: MDA-MB-231
DU-145 = test system: DU-145
MDA-MB-435 = test system: MDA-MB-435
PC-3 = test system: PC-3
NCI-H226 = test system: NCI-H226
COLO 205 = test system: COLO 205
SF-295 = test system: SF-295
UO-31 = test system: UO-31
T47D = test system: T47D
MDA-N = test system: MDA-N
K562 = test system: K562
HL-60 = test system: HL-60
U-251 = test system: U-251
EKVX = test system: EKVX
SK-OV-3 = test system: SK-OV-3
CCRF-CEM = test system: CCRF-CEM
RXF 393 = test system: RXF 393
SR = test system: SR

Measured: GI50

c1ccc2c(c1)Nc1c3ccccc3nc3cccc-2c13
0.632 µM: HCT-15
inactive: SK-MEL-2 1.6 µM | SNB-19 1.82 µM | Hs-578T 1.73 µM | OVCAR-5 1.43 µM | TK-10 1.73 µM | MCF7 1.24 µM | SK-MEL-28 1.71 µM | UACC-62 1.63 µM | SK-MEL-5 1.42 µM | NCI-H23 1.35 µM | BT-549 7.43 µM | NCI-H522 1.23 µM | SNB-75 1.65 µM | IGROV-1 1.21 µM | A498 2.51 µM | UACC-257 1.73 µM | OVCAR-3 1.46 µM | OVCAR-4 1.15 µM | M14 1.76 µM | SF-539 1.6 µM | Malme-3M 1.66 µM | SF-268 1.49 µM | DU-145 1.48 µM | MDA-MB-435 1.61 µM | NCI-H226 2.01 µM | SF-295 1.17 µM | UO-31 1.36 µM | T47D 2.06 µM | MDA-N 1.17 µM | HL-60 1.58 µM | EKVX 1.55 µM | SK-OV-3 1.35 µM | RXF 393 1.51 µM
active: SN12C 0.979 µM | LOX IMVI 0.877 µM | A549 1.05 µM | HCC 2998 1.02 µM | SW-620 0.283 µM | HCT-116 0.499 µM | HT-29 0.546 µM | 786-0 0.638 µM | NCI/ADR-RES 1.05 µM | MOLT-4 0.157 µM | ACHN 0.818 µM | KM12 1.12 µM | CAKI-1 1.08 µM | RPMI-8226 0.587 µM | NCI-H460 0.378 µM | HOP-62 1.02 µM | OVCAR-8 0.507 µM | MDA-MB-231 0.923 µM | PC-3 0.968 µM | COLO 205 0.857 µM | K562 0.386 µM | U-251 0.998 µM | CCRF-CEM 0.305 µM | SR 0.462 µM

CC(=O)N(C(C)=O)n1c(Cc2ccc(Cl)cc2)nn(C(C)=O)c1=O
> 100 µM: HCT-15
inactive: SK-MEL-2 > 100 µM | SNB-19 > 100 µM | Hs-578T > 100 µM | SN12C > 100 µM | OVCAR-5 > 100 µM | TK-10 > 100 µM | LOX IMVI > 100 µM | A549 > 100 µM | MCF7 > 100 µM | HCC 2998 > 100 µM | SW-620 > 100 µM | SK-MEL-28 > 100 µM | HT-29 > 100 µM | 786-0 > 100 µM | NCI/ADR-RES > 100 µM | UACC-62 > 100 µM | MOLT-4 > 100 µM | SK-MEL-5 > 100 µM | ACHN > 100 µM | KM12 > 100 µM | NCI-H23 > 100 µM | RPMI-8226 > 100 µM | BT-549 > 100 µM | NCI-H460 > 100 µM | NCI-H522 > 100 µM | SNB-75 > 100 µM | IGROV-1 > 100 µM | A498 > 100 µM | OVCAR-3 > 100 µM | OVCAR-4 > 100 µM | HOP-62 > 100 µM | M14 > 100 µM | SF-539 > 100 µM | Malme-3M > 100 µM | OVCAR-8 > 100 µM | SF-268 > 100 µM | MDA-MB-231 > 100 µM | DU-145 > 100 µM | MDA-MB-435 > 100 µM | PC-3 > 100 µM | NCI-H226 > 100 µM | COLO 205 > 100 µM | SF-295 > 100 µM | UO-31 > 100 µM | T47D > 100 µM | MDA-N > 100 µM | K562 > 100 µM | HL-60 > 100 µM | U-251 > 100 µM | EKVX > 100 µM | SK-OV-3 > 100 µM | CCRF-CEM > 100 µM | RXF 393 > 100 µM | SR > 100 µM
